What was measured:
integrin αvβ3 = molecular target: T1, integrin αvβ3 (Homo sapiens, UniProt P05106+P06756); experiment: Integrin binding affinity assay (displacement of [125I]-c(RGDyV)) on M21 cells; conditions: metal-free conjugate or reference peptide, radioligand [125I]-c(RGDyV), 2 h RT
T1 construct: endogenous in cells; host or cells: human melanoma M21 cells (gift from D. A. Cheresh)
Description: Receptor binding affinities were evaluated via a displacement cell-binding assay for metal free as well as metal bound ([^natGa]) conjugates. Binding of nonradioactive gallium was performed in analogy to the radiolabeling procedure but instead of the generator eluate a 100-fold molar excess of gallium bromide (GaBr3) dissolved in 100 μL 0.1 N HCl was used. Cells were prepared as described below and incubated with increasing concentrations [0.001–1000 nM] of competitor in triplicate. After addition of corresponding iodinated radioligand the 96-well MulitScreen Filter Plates HTS (1 μm glass fiber filter, Merck Millipore, Darmstadt, Germany) were incubated for 1 or 2 h at RT under shaking conditions (Compact shaker KS-15 control, 200/min) and after a washing step the remaining activity on the filter was measured in the γ-counter. The receptor affinity of DOTA-minigastrin11 as well as c(RGDyV) were determined under the corresponding conditions as a reference. IC50 values were calculated by using nonlinear curve fitting with following formula NS+SB/(1+x/IC50) on Origin 6.1 software (Northampton, MA, USA). A detailed description regarding iodination can be found in the Supporting Information.
Integrin binding affinity assay was adapted from Yun Wu et al.[31] Briefly, M21 cells were washed two times with phosphate buffered saline followed by suspension in binding buffer (=20 mM TRIS pH 7.4 + 150 mM NaCl + 2 mM CaCl2 + 1 mM MgCl2 + 1 mM MnCl2 0.1% BSA). 96-well plates were washed with 200 μL of 20 mM TRIS-buffer and seeded with 1 × 10^6 cells/well (10^7 cells/mL). After 10 min of incubation in the presence of the competitor {([^natGa])Sulfo-Cy7-FSC-RGD or c(RGDyV) diluted in binding buffer)} volume was adjusted to 200 μL/well by adding 50 μL of radioligand ([^125I]-c(RGDyV), 4.5 × 10^4 cpm) and the plate was left for 2 h at RT. Finally the supernatant was removed by vacuum and each well was washed three times with 200 μL ice-cold binding buffer.

[1] = system: M21 (αvβ3-positive) cells; experiment: Fluorescence measured cell specificity, M21; assay type: cell-based, human; conditions: 2 h incubation, 3 nM ligand
Description: (§1) Fluorescence assays were conducted similarly to the internalization assays except for using lower cell numbers and determining only the cellbound fraction. Briefly, A431-CCK2R, M21, and M21-L cells were diluted in corresponding media to a density of 2 × 10^6 cells/mL. Aliquots of 0.5 mL were transferred to Eppendorf tubes—six technical replicates for A431-CCK2R unblocked and blocked and M21/M21-L, respectively—and treated in the same manner as described above. The nonradiolabeled particular ligand was added to a final concentration of 3 nM and the tubes were kept in an incubator (Incubator hood TH15 and Compact shaker KS-15 control, Edmund Bühler GmbH, Hechingen, Germany) at 37 °C for 2 h under vigorously shaking (420/min). After centrifugation (2 min, 5000 rpm) washing steps were performed as mentioned before. […] Fluorescence intensity was measured with Tecan Infinite 200 PRO series multiplate reader (Tecan Trading AG, Switzerland) by using Tecan Icontrol 1.1 software. Parameters were set as follows: Fluorescence Top reading; excitation/emission wavelength 740/790 nm; excitation bandwidth 9 nm; emission bandwidth 20 nm; gain optimal; number of flashes 25; integration time 25 μs. Results were calculated and expressed as percentage of cell-bound fluorescence in relation to the standards sample.

[2] = system: M21-L (αvβ3-negative) cells; experiment: Fluorescence measured cell specificity, M21-L; assay type: cell-based, human; conditions: 2 h incubation, 3 nM ligand
Description: as §1

[3] = system: mice bearing U-87MG tumor xenografts; experiment: Near-infrared fluorescence imaging, U-87MG xenografts; assay type: in vivo, mouse
Description: All animal experiments were conducted in accordance with regulations and guidelines of the Czech Animal Protection Act (No. 246/1992), and with the approval of the Czech Ministry of Education, Youth, and Sports (MSMT-22421/2013–12), and the institutional Animal Welfare Committee of the Faculty of Medicine and Dentistry of Palacky University in Olomouc. The studies were performed using female 8–10-week-old athymic BALB/c nude mice (Envigo, Horst, The Netherlands). […]
Tumor xenografts were established near the front shoulder of mice by subcutaneous injection of 5 × 10^6 cells (U-87 MG) or 2 × 10^6 cells (A431-CCK2R) and the same amount of A431-mock cells as a control in 200 μL appropriate medium and Matrigel (1:1). […] Tumors, blood, muscle tissue, and organs were extracted, weighed, and activity uptake of the samples was measured in the gamma counter. Results were expressed as percentage of injected dose per gram tissue (% ID/g). […] After reconstruction, acquired data was viewed and analyzed with PMOD software (PMOD Technologies Ltd., Zurich, Switzerland). […] Near-infrared in vivo fluorescence imaging was performed with an In-Vivo MS FX PRO small animal imaging system (Bruker Biospin Corporation, Woodbridge, CT, USA). […] An appropriate filter set (excitation = 730 nm and emission = 790 nm) was used for acquiring the Sulfo-Cy7-FSC-peptide - fluorescence in vivo. […]

human CCK-2 receptor = molecular target: T2, human CCK-2 receptor (Homo sapiens, UniProt P32239); set-up: method as in unpublished data; conditions: comparison value, slight variances in experimental setting; ref unpublished data; cited from earlier work
T2 construct: expressed in transfected cells; host or cells: A431 human squamous carcinoma cells (gift from L. Aloj)
T2 sequence (P32239 1-447): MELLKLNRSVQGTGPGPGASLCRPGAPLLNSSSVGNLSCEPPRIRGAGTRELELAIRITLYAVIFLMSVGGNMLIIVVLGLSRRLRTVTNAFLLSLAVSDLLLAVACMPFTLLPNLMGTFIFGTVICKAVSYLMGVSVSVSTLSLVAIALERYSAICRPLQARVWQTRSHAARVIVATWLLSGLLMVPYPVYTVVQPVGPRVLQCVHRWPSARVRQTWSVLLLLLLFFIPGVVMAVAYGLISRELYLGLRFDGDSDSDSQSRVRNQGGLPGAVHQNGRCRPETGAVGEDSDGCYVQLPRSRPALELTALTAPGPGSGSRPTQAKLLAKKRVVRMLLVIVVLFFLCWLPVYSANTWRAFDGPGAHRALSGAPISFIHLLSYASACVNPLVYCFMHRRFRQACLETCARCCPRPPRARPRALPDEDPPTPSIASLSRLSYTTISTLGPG

T1 sequence (P06756 31-889 limits assumed): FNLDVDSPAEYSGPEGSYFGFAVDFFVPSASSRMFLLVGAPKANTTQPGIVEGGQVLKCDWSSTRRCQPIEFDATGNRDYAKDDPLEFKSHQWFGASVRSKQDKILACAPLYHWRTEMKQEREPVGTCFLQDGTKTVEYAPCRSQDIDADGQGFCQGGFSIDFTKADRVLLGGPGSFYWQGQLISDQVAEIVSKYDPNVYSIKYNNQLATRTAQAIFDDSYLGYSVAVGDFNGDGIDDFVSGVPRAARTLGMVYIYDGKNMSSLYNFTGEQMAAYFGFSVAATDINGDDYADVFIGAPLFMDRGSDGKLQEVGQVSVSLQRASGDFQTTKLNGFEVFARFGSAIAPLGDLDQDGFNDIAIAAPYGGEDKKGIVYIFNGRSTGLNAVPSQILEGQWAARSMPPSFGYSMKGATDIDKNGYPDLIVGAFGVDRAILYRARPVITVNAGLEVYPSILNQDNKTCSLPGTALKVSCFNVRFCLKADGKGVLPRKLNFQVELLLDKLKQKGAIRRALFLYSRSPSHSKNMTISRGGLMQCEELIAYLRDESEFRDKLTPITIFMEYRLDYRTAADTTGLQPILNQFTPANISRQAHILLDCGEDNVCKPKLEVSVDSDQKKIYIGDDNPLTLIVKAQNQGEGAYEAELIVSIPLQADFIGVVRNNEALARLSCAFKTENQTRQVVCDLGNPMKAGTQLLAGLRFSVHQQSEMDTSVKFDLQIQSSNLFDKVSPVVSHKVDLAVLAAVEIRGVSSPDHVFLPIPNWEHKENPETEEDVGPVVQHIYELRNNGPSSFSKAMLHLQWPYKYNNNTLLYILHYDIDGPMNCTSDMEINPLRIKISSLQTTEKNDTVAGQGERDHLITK
T1 sequence (P06756 891-1048 partner limits assumed): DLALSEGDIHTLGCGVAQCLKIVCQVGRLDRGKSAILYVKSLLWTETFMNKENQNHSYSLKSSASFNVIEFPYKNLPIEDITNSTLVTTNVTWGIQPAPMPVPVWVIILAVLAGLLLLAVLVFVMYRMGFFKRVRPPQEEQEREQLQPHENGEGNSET
T1 sequence (P05106 27-788): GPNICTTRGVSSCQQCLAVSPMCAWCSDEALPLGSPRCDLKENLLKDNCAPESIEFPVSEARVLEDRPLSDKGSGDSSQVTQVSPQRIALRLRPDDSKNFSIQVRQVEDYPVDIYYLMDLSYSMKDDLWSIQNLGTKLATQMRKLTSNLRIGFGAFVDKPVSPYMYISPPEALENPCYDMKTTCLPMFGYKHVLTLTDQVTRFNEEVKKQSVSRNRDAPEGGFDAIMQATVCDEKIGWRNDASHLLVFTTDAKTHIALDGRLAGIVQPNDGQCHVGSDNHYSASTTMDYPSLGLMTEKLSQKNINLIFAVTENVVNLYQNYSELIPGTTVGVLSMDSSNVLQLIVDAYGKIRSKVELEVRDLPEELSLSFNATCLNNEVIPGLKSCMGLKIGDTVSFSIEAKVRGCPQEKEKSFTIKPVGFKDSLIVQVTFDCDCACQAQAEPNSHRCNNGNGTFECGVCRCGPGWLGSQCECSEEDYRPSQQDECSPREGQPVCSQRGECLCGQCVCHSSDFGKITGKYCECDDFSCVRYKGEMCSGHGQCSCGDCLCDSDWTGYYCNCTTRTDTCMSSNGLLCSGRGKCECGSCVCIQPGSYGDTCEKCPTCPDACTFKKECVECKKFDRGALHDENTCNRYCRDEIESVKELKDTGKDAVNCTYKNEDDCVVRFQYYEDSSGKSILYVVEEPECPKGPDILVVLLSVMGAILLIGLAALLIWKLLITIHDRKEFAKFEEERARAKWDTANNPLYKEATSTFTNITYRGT

Compound | IC50 (integrin αvβ3) [nM] | Fluorescence-determined cell uptake [1] [%] | Fluorescence-determined cell uptake [2] [%] | time of best contrast in fluorescence imaging ([3]; after administration) [h] | tumor retention in fluorescence imaging ([3]; two days after injection) | IC50 (human CCK-2 receptor) [nM]
CC1=CC(=O)N(O)CCCC(NC(=O)CCN2C(=O)CC(SCCOCCOCCOCCOCCC(=O)NCCCC[C@@H]3NC(=O)[C@@H](Cc4ccccc4)NC(=O)[C@H](CC(=O)O)NC(=O)CNC(=O)[C@H](CCCNC(=N)N)NC3=O)C2=O)C(=O)OCCC(C)=CC(=O)N(O)CCCC(NC(=O)CCN2C(=O)CC(SCCOCCOCCOCCOCCC(=O)NCCCC[C@@H]3NC(=O)[C@@H](Cc4ccccc4)NC(=O)[C@H](CC(=O)O)NC(=O)CNC(=O)[C@H](CCCNC(=N)N)NC3=O)C2=O)C(=O)OCCC(C)=CC(=O)N(O)CCCC(NC(=O)CCCCC[N+]2=C(C=CC3=CC(=CC=C4N(C)c5ccc(S(=O)(=O)O)cc5C4(C)C)CCC3)C(C)(C)c3cc(S(=O)(=O)[O-])ccc32)C(=O)OCC1 (stereo partly drawn) [Sulfo-Cy7-FSC-RGD, Sulfo-Cyanine7-FSC-(mal-c(RGDfK)-(PEG4))2] | 1.13 ± 0.22 | 5.79 ± 0.88 | 1.74 ± 0.25 | 24 | completely washed out from tumor tissue | –
nonfluorescent divalent FSC-MG derivative: nonfluorescent divalent FSC-MG derivative, authors' unpublished data used for comparison (EAYGWMDF; Synthetic minigastrin analogue MG11, converted from the printed [D-Glu1,desGlu2-6]-Ala-Tyr-Gly-Trp-Met-Asp-Phe-NH2; Glu1 is D-Glu; C-terminal amide; Two peptides on one Fusarinine C chelator, no fluor) | – | – | – | – | – | 0.9 ± 0.2
